Reference: article PMC12881674, “Activation of TRPV3 channels in bladder cancer cells stimulates ATP release” (Molecular Pharmacology, 2025)

Molecular target: T1, human TRPM2 (Homo sapiens, UniProt O94759)
T1 construct: expressed in transfected cells; host or cells: HEK293
Assay: fluo-4 Ca2+ assay selectivity, HEK cells expressing human TRPM2
Assay type: cell-based
Conditions: concentrations up to 50 μM
Text: KU-19-19 (DSMZ no. ACC 395), CAL-29 (DSMZ no. ACC 515), 647-V (DSMZ no. ACC 414), RT-4 (DSMZ no. ACC 412), and RT-112 (DSMZ no. ACC 418) bladder cancer cell lines were obtained from the Leibniz Institute DSMZ (German Collection of Microorganisms and Cell Cultures). Human TRPV3 (NM_145068, purchased from OriGene) and mouse TRPV3 (NM_001371006), rat TRPV1, mouse TRPV2, mouse TRPV4, human TRPM2, human TRPM8, and human TRPA1 were stably transfected in HEK293 cells as described before.[27] […]
All fluorometric Ca^2+ assays were performed in HBS buffer at room temperature. […] For the primary compound screening and the generation of concentration-response analyses, a robotic liquid handling station (Freedom Evo 150; Tecan) with a built-in custom-made fluorescence plate imager was used. […] Fluorescence was excited using a 470-nm light-emitting diode, and emitted light was imaged through a 515-nm–long pass filter with a cooled Zyla 5.5 camera (Andor). Fluorescence was recorded and processed under the control of the μ-Manager 2.0 gamma software (https://micro-manager.org.[28]). After recording baseline fluorescence, compounds were dispensed into the wells via the liquid handling device. […] For further analysis, fluorescence signals were calculated for each well, corrected for background intensities and normalized to the initial signals. […]

T1 sequence (O94759 whole entry): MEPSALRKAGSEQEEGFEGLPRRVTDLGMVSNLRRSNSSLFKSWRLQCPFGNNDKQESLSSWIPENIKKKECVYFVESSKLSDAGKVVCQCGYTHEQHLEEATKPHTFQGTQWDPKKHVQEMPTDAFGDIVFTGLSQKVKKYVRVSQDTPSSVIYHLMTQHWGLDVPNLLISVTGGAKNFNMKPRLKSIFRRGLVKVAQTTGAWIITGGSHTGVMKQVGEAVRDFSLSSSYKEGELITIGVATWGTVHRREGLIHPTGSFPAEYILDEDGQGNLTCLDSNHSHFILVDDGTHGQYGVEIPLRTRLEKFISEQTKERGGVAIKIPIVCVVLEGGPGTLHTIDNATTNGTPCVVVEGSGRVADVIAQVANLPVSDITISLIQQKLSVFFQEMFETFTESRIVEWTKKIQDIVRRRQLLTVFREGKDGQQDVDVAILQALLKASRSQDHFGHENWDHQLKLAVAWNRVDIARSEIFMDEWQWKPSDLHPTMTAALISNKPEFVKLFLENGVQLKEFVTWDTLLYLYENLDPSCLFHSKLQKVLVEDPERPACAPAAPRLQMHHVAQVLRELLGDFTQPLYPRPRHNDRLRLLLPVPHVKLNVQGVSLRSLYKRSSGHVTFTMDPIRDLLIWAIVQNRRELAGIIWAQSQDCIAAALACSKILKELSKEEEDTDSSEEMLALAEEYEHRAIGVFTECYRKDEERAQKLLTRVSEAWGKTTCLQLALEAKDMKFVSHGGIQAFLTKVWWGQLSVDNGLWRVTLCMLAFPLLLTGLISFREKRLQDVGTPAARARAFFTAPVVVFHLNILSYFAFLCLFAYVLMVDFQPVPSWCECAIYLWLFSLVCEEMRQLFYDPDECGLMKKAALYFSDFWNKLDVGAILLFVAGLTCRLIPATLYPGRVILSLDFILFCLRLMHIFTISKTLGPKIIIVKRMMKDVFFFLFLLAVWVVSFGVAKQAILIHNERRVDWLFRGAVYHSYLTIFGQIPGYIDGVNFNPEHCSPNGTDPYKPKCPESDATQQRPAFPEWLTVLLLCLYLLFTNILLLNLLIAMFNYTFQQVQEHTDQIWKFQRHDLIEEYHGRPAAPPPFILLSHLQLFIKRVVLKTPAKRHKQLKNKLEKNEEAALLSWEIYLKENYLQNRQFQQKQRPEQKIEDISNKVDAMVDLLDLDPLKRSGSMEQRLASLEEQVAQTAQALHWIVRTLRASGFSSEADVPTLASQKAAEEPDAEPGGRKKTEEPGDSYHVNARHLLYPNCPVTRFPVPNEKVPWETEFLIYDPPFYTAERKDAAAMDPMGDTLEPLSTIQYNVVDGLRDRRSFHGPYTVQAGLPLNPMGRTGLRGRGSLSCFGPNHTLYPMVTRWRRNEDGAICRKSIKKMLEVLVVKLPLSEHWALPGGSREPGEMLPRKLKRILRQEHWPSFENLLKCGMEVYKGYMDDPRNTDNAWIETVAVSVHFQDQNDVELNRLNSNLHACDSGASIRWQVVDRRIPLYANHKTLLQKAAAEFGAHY

effect on TRPM2: no effect
Compound: COC(=O)C12CN(Cc3ccccc3)CC1(C(=O)OC)CN(Cc1ccccc1)C2 (stereo not shown) [AV3-1]
